Like-named read-outs stand apart in the source and are kept apart here.
Tests used:
[1] = biological target: T1, human norepinephrine (NE) reuptake transporter (Homo sapiens, UniProt P23975); test: functional uptake assay, human NE reuptake transporter; type: cell-based; settings: read-out: NE IC50
T1 construct: expressed in transfected cells
Method: (§1) Compounds were tested for their inhibition of functional uptake of serotonin (5-HT), norepinephrine (NE), and dopamine (DA), in synaptosomes prepared from rat whole brain, hypothalamus, or corpus striatum, respectively, and/or using recombinant human transporters.

[2] = biological target: T2, human serotonin (5-HT) reuptake transporter (Homo sapiens, UniProt P31645); test: functional uptake assay, human 5-HT reuptake transporter; type: cell-based
T2 construct: expressed in transfected cells
T2 sequence (P31645 whole entry): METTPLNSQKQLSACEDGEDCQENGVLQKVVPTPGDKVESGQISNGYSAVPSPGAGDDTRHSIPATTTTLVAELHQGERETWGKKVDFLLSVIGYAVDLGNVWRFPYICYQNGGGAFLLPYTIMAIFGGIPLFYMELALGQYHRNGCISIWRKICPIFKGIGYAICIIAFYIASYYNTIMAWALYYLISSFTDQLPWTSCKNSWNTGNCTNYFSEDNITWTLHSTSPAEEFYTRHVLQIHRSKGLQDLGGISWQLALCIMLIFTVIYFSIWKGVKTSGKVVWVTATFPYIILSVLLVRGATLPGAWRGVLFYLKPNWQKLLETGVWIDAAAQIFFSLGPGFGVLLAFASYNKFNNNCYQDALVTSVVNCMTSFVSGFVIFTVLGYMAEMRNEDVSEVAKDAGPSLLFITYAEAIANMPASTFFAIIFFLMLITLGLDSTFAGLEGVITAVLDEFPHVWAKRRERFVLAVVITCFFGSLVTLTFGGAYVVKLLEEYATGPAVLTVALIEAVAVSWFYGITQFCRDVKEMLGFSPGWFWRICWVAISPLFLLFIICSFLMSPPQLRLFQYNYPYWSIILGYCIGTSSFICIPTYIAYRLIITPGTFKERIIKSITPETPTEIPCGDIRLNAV
Method: as §1

[3] = biological target: T3, human dopamine (DA) reuptake transporter (Homo sapiens, UniProt Q01959); test: functional uptake assay, human DA reuptake transporter; type: cell-based
T3 construct: expressed in transfected cells
T3 sequence (Q01959 whole entry): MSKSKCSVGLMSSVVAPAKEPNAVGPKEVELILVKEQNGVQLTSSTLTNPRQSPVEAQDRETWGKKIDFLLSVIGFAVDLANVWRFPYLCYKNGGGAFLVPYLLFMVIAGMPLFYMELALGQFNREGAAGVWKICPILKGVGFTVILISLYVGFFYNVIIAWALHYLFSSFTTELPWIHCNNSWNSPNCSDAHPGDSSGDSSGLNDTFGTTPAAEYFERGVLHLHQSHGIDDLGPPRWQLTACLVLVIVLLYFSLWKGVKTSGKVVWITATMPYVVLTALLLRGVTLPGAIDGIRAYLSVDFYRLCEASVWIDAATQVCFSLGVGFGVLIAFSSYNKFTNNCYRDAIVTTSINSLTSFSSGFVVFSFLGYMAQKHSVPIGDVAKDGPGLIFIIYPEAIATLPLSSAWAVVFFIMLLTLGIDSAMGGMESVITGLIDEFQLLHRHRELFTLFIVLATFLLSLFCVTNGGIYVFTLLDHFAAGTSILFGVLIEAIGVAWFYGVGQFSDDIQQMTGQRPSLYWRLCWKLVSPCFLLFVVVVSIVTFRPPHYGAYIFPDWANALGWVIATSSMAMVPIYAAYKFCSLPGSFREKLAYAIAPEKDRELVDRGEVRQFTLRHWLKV
Method: as §1

[4] = biological target: serotonin uptake sites (Homo sapiens, UniProt P31645); settings: cited from earlier work
Chain of serotonin uptake sites (P31645 whole entry): as the sequence (P31645 whole entry) above

[5] = in vivo; cited from earlier work
[6] = human metabolic stability (HLM t1/2); type: in vitro ADME; settings: human liver microsomes
Source text: 4b. In Vitro PK Data (Human Metabolic Stability, Inhibition of CYP450 Enzymes, Inhibition of HERG Current)

[7] = Example 6 summary of selected in vitro data
[8] = Example 6 summary of selected in vitro data, read-out: 5-HT IC50
[9] = Example 6 summary of selected in vitro data, read-out: DA IC50
[10] = Example 4a, human reuptake transporter
[11] = Example 4a, human reuptake transporter, read-out: 5-HT IC50
[12] = Example 4a, human reuptake transporter, read-out: DA IC50

T1 sequence (P23975 whole entry): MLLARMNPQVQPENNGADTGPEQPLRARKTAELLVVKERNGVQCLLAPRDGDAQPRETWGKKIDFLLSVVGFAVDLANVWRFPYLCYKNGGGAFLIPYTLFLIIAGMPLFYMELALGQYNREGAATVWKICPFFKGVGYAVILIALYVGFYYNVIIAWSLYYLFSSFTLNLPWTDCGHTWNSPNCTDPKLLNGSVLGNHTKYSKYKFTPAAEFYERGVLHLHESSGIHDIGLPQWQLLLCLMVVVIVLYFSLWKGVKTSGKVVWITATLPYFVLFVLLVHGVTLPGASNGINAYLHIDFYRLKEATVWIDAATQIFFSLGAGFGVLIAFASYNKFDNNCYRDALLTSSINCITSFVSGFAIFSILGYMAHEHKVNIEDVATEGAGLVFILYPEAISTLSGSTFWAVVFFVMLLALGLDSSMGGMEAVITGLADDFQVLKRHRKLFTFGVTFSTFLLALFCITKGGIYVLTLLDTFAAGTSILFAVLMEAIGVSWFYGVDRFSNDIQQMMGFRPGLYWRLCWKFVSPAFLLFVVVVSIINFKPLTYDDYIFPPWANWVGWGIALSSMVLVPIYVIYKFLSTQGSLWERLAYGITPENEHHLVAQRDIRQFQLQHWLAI

SMILES: NC[C@]1(F)CCCC[C@@]1(O)c1ccc(Cl)c(Cl)c1 [Compound 21 A/B]
- IC50 [1, 7]: > 5 µM
- IC50 ([2]; read-out: 5-HT IC50 nM, Example 6 summary of selected in vitro data): 1 to 2000 nM
- IC50 ([3]; read-out: DA IC50 nM, Example 6 summary of selected in vitro data): 10 to 200 nM

SMILES: CNC[C@]1(C)CCCC[C@@]1(O)c1ccc(Cl)c(Cl)c1 [Compound 16 A/B]
- IC50 [1, 7]: > 5 µM
- IC50 [2, 8]: 1 to 2000 nM
- IC50 [3, 9]: 10 to 200 nM

SMILES: Clc1ccc([C@@]23CNC[C@@H]2C3)cc1Cl (single isomer, unassigned) [DOV 21,947, (+)-1-(3,4-dichlorophenyl)-3-azabicyclo[3.1.0]hexane]
- affinity for the serotonin uptake sites versus the racemic compound [4]: significantly greater affinity
- immobility in the tail suspension test [5]: dose-dependent reduction in immobility

SMILES: CN(C)C[C@]1(C)CCCC[C@@]1(O)c1ccc(Cl)c(Cl)c1 [Compound 17 A/B]
- IC50 [1, 7]: > 5 µM
- IC50 [2, 8]: 2000 to 7000 nM
- IC50 [3, 9]: 201 to 1000 nM

SMILES: CN(C)C[C@H]1CCCC[C@]1(O)c1ccc(Cl)c(Cl)c1 (single isomer, unassigned) [Compound 1, cis-1-(3,4-dichlorophenyl)-2-((dimethylamino)methyl)cyclohexanol]
- IC50 [1, 10]: 0.201 to 1 µM
- IC50 [1, 7]: 0.201 to 1 µM
- IC50 [2, 11]: 1 to 2000 nM
- IC50 [2, 8]: 1 to 2000 nM
- half-life [6]: 25 to 175 min
- IC50 [3, 12]: 201 to 1000 nM
- IC50 [3, 9]: 201 to 1000 nM

SMILES: NC[C@@H]1CCCC[C@@]1(O)c1ccc(Cl)c(Cl)c1 (relative stereo) [Compound 9, cis-2-(aminomethyl)-1-(3,4-dichlorophenyl)cyclohexanol]
- IC50 [1, 10]: 1 to 5 µM
- IC50 [1, 7]: 1 to 5 µM
- IC50 [2, 11]: > 10000 nM
- IC50 [2, 8]: > 10000 nM
- IC50 [3, 12]: 10 to 200 nM
- IC50 [3, 9]: 10 to 200 nM

SMILES: NCC1CCCCC1(O)c1ccc(Cl)c(Cl)c1 (single isomer, unassigned) [Compound 8, cis-2-(aminomethyl)-1-(3,4-dichlorophenyl)cyclohexanol]
- IC50 [1, 10]: > 5 µM
- IC50 [1, 7]: > 5 µM
- IC50 [2, 11]: 7000 to 10000 nM
- IC50 [2, 8]: 7000 to 10000 nM
- IC50 [3, 12]: 201 to 1000 nM
- IC50 [3, 9]: 201 to 1000 nM

SMILES: CN(C)C[C@]1(F)CCCC[C@@]1(O)c1ccc(Cl)c(Cl)c1 [Compound 23 A/B]
- IC50 [1, 7]: > 5 µM
- IC50 [2, 8]: 2000 to 7000 nM
- IC50 [3, 9]: 201 to 1000 nM

SMILES: C[C@@]1(CN)CCCC[C@@]1(O)c1ccc(Cl)c(Cl)c1 [Compound 15 A/B]
- IC50 [1, 7]: > 5 µM
- IC50 [2, 8]: 2000 to 7000 nM
- IC50 [3, 9]: 201 to 1000 nM

Source: US8669291B2, “Phenyl substituted cycloalkylamines as monoamine reuptake inhibitors” (Sunovion Pharmaceuticals Inc., priority 2007, dated 2014)
